The source of these data is patent publication US11731976B2, “3-(ethoxydifluoromethyl)-6-(5-fluoro-6-(2,2,2-trifluoroethoxy)pyridin-3-yl)-[1,2,4]triazolo[4,3-a]pyridine as an ion channel modulator” (Praxis Precision Medicines, Inc., priority 2018, dated 2023).

Some results are limits rather than exact numbers.

The target in this assay is T1, human NaV1.6 (hNaV1.6) (Homo sapiens, UniProt Q9UQD0).
T1 construct: expressed in transfected cells; host or cells: HEK-293
T1 sequence (Q9UQD0 whole entry): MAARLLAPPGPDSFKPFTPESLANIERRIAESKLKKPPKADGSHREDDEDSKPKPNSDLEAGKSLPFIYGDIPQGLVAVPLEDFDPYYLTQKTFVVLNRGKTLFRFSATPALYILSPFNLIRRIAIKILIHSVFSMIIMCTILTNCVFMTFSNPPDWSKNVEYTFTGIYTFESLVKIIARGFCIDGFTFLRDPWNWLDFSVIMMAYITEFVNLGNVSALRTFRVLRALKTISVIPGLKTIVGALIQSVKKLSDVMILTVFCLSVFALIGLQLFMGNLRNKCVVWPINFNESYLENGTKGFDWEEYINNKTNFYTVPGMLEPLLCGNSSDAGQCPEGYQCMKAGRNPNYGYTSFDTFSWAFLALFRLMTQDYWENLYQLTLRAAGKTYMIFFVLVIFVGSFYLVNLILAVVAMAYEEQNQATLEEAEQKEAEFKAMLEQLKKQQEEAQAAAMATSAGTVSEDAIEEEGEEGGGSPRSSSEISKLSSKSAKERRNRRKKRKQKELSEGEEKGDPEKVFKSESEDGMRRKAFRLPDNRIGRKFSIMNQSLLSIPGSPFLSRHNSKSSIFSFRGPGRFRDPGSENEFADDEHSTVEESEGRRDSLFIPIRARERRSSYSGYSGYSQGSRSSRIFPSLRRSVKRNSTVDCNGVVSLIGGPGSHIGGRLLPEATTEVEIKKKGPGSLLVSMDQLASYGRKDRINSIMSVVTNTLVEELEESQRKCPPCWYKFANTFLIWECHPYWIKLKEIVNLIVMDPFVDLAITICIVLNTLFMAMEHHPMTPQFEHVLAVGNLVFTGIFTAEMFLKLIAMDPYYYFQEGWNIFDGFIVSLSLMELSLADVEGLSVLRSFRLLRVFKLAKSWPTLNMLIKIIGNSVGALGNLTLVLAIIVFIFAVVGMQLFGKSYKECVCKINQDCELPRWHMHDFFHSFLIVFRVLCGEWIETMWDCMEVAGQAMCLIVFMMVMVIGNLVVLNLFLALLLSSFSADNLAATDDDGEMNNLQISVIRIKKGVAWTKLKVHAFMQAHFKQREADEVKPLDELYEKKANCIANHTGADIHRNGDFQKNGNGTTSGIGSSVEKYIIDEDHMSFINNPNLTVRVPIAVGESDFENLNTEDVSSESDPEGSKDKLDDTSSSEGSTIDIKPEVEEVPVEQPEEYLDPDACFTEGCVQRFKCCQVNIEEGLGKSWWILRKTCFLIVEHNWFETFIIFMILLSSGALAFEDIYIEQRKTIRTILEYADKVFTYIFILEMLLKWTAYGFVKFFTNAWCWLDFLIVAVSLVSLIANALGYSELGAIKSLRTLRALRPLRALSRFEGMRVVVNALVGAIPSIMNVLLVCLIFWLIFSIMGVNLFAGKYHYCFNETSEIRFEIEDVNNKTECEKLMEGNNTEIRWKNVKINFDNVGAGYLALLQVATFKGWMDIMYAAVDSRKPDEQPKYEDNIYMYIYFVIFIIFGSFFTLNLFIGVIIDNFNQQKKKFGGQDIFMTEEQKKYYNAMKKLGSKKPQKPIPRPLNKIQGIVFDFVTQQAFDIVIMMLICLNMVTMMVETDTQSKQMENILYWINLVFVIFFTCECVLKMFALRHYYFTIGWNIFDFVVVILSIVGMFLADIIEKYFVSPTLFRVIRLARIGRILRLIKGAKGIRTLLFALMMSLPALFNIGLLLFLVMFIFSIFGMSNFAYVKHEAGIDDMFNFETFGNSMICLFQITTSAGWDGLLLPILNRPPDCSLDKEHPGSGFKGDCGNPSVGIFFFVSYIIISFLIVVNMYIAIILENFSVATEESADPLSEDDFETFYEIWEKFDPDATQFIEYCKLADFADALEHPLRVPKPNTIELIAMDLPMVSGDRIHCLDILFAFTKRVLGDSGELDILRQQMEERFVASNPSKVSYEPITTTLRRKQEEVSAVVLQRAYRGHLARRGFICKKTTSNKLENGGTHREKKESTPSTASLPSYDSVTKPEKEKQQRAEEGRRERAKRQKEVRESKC
The assay is described as follows: Modulation of late sodium current (INaL), PatchXpress electrophysiology, HEK-293 cells expressing hNaV1.6. The assay is classed as cell-based. The settings on record: HEK293, late current evoked by 300 nM ATX-II, read-out: NaV 1.6 Assay Data: percent inhibition of INaL at hNaV1.6. On the procedure: Functional characterization of exemplary compounds to modulate INaL expressed by the NaV1.6 voltage-gated sodium channel was accomplished using the PatchXpress™ high throughput electrophysiology platform (Molecular Devices, Sunnyvale, Calif.). HEK-293 cells expressing recombinant, human NaV1.6 (hNaV1.6) were grown in DMEM/high-glucose Dulbecco's modified, 10% FBS, 2 mM sodium pyruvate, 10 mM HEPES and 400 μg/mL G418. Cells were grown to 50%-80% confluency prior to harvesting. Trypsinized cells were washed, allowed to recover for 1 hour and then resuspended in extracellular recording solution at a concentration of 1×10^6 cells/ml. The onboard liquid handling facility of the PatchXpress was used for dispensing cells and applying test compounds. NaV late currents were evoked by the application of 300 nM ATX-II. INaL was evoked by depolarizing pulses to 0 mV for 200 ms from a non-inactivating holding potential (e.g., −120 mV) at a frequency of 0.1 Hz. INaL amplitude and stability were determined by analyzing the mean current amplitude over the final 20 ms of the test pulse. Following steady state block with exemplary compounds (e.g., as described herein), a Na+ free solution containing an impermeant cation (e.g., Choline or NDMG) was added to confirm the identify of the sodium current. Percent steady-state inhibition of INaL was calculated as: [(INaL_compound)/(INaL_control)]*100, where INaL_compound and INaL_control represent INaL recorded in the presence or absence of compound, respectively.
On to `CCOC(F)(F)c1nnc2ccc(-c3cnc(O[C@@H](C)C(F)(F)F)c(F)c3)cn12` [Compound 32, 3-[ethoxy(difluoro)methyl]-6-[5-fluoro-6-[(1S)-2,2,2-trifluoro-1-methyl-ethoxy]-3-pyridyl]-[1,2,4]triazolo[4,3-a]pyridine], for which the inhibition at 1 µM was over 70%.

Consider `CCOC(F)(F)c1nnc2cnc(-c3cnc(O[C@@H](C)C(F)(F)F)c(F)c3)cn12` [Compound 33, 3-[ethoxy(difluoro)methyl]-6-[5-fluoro-6-[(1S)-2,2,2-trifluoro-1-methyl-ethoxy]-3-pyridyl]-[1,2,4]triazolo[4,3-a]pyrazine], for which the inhibition at 1 µM is over 70%.

As for `CCOC(F)(F)c1nnc2ccc(-c3cnc(O[C@H](C)C(F)(F)F)c(F)c3)cn12` [Compound 34, 3-[ethoxy(difluoro)methyl]-6-[5-fluoro-6-[(1R)-2,2,2-trifluoro-1-methyl-ethoxy]-3-pyridyl]-[1,2,4]triazolo[4,3-a]pyridine], the inhibition at 1 µM is over 70%.

Consider `COCc1nnc2ccc(-c3cnc(OCC(F)(F)F)c(F)c3)nn12` [Compound 35, 6-[5-fluoro-6-(2,2,2-trifluoroethoxy)-3-pyridyl]-3-(methoxymethyl)-[1,2,4]triazolo[4,3-b]pyridazine], for which the inhibition at 1 µM was under 30%.

Take `C[C@@H](Oc1ncc(-c2ccc3nnc(C(F)(F)OC4CC4)n3c2)cc1F)C(F)(F)F` [Compound 36, 3-[cyclopropoxy(difluoro)methyl]-6-[5-fluoro-6-[(1R)-2,2,2-trifluoro-1-methyl-ethoxy]-3-pyridyl]-[1,2,4]triazolo[4,3-a]pyridine]: the inhibition at 1 µM was over 70%.

Take `C[C@H](Oc1ncc(-c2ccc3nnc(C(F)(F)OC4CC4)n3c2)cc1F)C(F)(F)F` [Compound 37, 3-[cyclopropoxy(difluoro)methyl]-6-[5-fluoro-6-[(1S)-2,2,2-trifluoro-1-methyl-ethoxy]-3-pyridyl]-[1,2,4]triazolo[4,3-a]pyridine]: the inhibition at 1 µM is over 70%.

As for `COCc1nnc2cnc(-c3cnc(O[C@@H](C)C(F)(F)F)c(F)c3)cn12` [Compound 38, 6-[5-fluoro-6-[(1S)-2,2,2-trifluoro-1-methyl-ethoxy]-3-pyridyl]-3-(methoxymethyl)-[1,2,4]triazolo[4,3-a]pyrazine], the inhibition at 1 µM fell in the range of 30 to 70%.

For the compound `COCc1nnc2cnc(-c3cnc(OCC(F)(F)F)c(F)c3)cn12` [Compound 39, 6-[5-fluoro-6-(2,2,2-trifluoroethoxy)-3-pyridyl]-3-(methoxymethyl)-[1,2,4]triazolo[4,3-a]pyrazine], the inhibition at 1 µM is under 30%.

Turning to `COCc1nnc2ccc(-c3cnc(O[C@H](C)C(F)(F)F)c(F)c3)cn12` [Compound 40, 6-[5-fluoro-6-[(1R)-2,2,2-trifluoro-1-methyl-ethoxy]-3-pyridyl]-3-(methoxymethyl)-[1,2,4]triazolo[4,3-a]pyridine], the inhibition at 1 µM was under 30%.

In the case of `CCOC(F)(F)c1nnc2ccc(-c3cnc(O[C@@H](C)C(F)(F)F)c(F)c3)nn12` [Compound 41, 3-[ethoxy(difluoro)methyl]-6-[5-fluoro-6-[(1S)-2,2,2-trifluoro-1-methyl-ethoxy]-3-pyridyl]-[1,2,4]triazolo[4,3-b]pyridazine], the inhibition at 1 µM is over 70%.

On to `CCOC(F)(F)c1nnc2ccc(-c3cnc(O[C@H](C)C(F)(F)F)c(F)c3)nn12` [Compound 42, 3-[ethoxy(difluoro)methyl]-6-[5-fluoro-6-[(1R)-2,2,2-trifluoro-1-methyl-ethoxy]-3-pyridyl]-[1,2,4]triazolo[4,3-b]pyridazine], for which the inhibition at 1 µM is over 70%.

For `COCc1nnc2ccc(-c3cnc(O[C@@H](C)C(F)(F)F)c(F)c3)cn12` [Compound 43, 6-[5-fluoro-6-[(1S)-2,2,2-trifluoro-1-methyl-ethoxy]-3-pyridyl]-3-(methoxymethyl)-[1,2,4]triazolo[4,3-a]pyridine], the inhibition at 1 µM lay within 30 to 70%.

`COCc1nnc2ccc(-c3cnc(O[C@@H](C)C(F)(F)F)c(F)c3)nn12` [Compound 44, 6-[5-fluoro-6-[(1S)-2,2,2-trifluoro-1-methyl-ethoxy]-3-pyridyl]-3-(methoxymethyl)-[1,2,4]triazolo[4,3-b]pyridazine]: the inhibition at 1 µM was 30 to 70%.

As to `CC(C)COC(F)(F)c1nnc2cnc(-c3cnc(O[C@@H](C)C(F)(F)F)c(F)c3)cn12` [Compound 45, 3-[difluoro(isobutoxy)methyl]-6-[5-fluoro-6-[(1S)-2,2,2-trifluoro-1-methyl-ethoxy]-3-pyridyl]-[1,2,4]triazolo[4,3-a]pyrazine], the inhibition at 1 µM is over 70%.

On to `COCc1nnc2ccc(-c3cnc(O[C@H](C)C(F)(F)F)c(F)c3)nn12` [Compound 46, 6-[5-fluoro-6-[(1R)-2,2,2-trifluoro-1-methyl-ethoxy]-3-pyridyl]-3-(methoxymethyl)-[1,2,4]triazolo[4,3-b]pyridazine], for which the inhibition at 1 µM was in the range of 30 to 70%.

As for `CC(C)COC(F)(F)c1nnc2ccc(-c3cnc(O[C@@H](C)C(F)(F)F)c(F)c3)nn12` [Compound 47, 3-[difluoro(isobutoxy)methyl]-6-[5-fluoro-6-[(1S)-2,2,2-trifluoro-1-methyl-ethoxy]-3-pyridyl]-[1,2,4]triazolo[4,3-b]pyridazine], the inhibition at 1 µM is over 70%.

As to `CC(C)COC(F)(F)c1nnc2ccc(-c3cnc(O[C@H](C)C(F)(F)F)c(F)c3)nn12` [Compound 49, 3-[difluoro(isobutoxy)methyl]-6-[5-fluoro-6-[(1R)-2,2,2-trifluoro-1-methyl-ethoxy]-3-pyridyl]-[1,2,4]triazolo[4,3-b]pyridazine], the inhibition at 1 µM was over 70%.

Take `CCOCc1nnc2cnc(-c3cnc(O[C@@H](C)C(F)(F)F)c(F)c3)cn12` [Compound 50, 3-(ethoxymethyl)-6-[5-fluoro-6-[(1S)-2,2,2-trifluoro-1-methyl-ethoxy]-3-pyridyl]-[1,2,4]triazolo[4,3-a]pyrazine]: the inhibition at 1 µM was over 70%.

As for `C[C@@H](Oc1ncc(-c2cn3c(C(F)(F)OC4CC4)nnc3cn2)cc1F)C(F)(F)F` [Compound 51, 3-[cyclopropoxy(difluoro)methyl]-6-[5-fluoro-6-[(1R)-2,2,2-trifluoro-1-methyl-ethoxy]-3-pyridyl]-[1,2,4]triazolo[4,3-a]pyrazine], the inhibition at 1 µM is over 70%.

For the compound `CCOCc1nnc2cnc(-c3cnc(O[C@H](C)C(F)(F)F)c(F)c3)cn12` [Compound 52, 3-(ethoxymethyl)-6-[5-fluoro-6-[(1R)-2,2,2-trifluoro-1-methyl-ethoxy]-3-pyridyl]-[1,2,4]triazolo[4,3-a]pyrazine], the inhibition at 1 µM lay within 30 to 70%.

Take `COC(F)(F)c1nnc2cnc(-c3ccc(OC4(C(F)(F)F)CCC4)nc3)cn12` [Compound 57]: the inhibition at 1 µM was over 70%.

`COC(F)(F)c1nnc2cnc(-c3cnc(O[C@@H](C)C(F)(F)F)c(F)c3)c(C)n12` [Compound 58, 3-[difluoro(methoxy)methyl]-6-[5-fluoro-6-[(1S)-2,2,2-trifluoro-1-methyl-ethoxy]-3-pyridyl]-5-methyl-[1,2,4]triazolo[4,3-a]pyrazine]: the inhibition at 1 µM is over 70%.

As to `COC(F)(F)c1nnc2cnc(-c3cnc(O[C@H](C)C(F)(F)F)c(F)c3)c(C)n12` [Compound 60, 3-[difluoro(methoxy)methyl]-6-[5-fluoro-6-[(1R)-2,2,2-trifluoro-1-methyl-ethoxy]-3-pyridyl]-5-methyl-[1,2,4]triazolo[4,3-a]pyrazine], the inhibition at 1 µM was 30 to 70%.

Turning to `COC(F)(F)c1nnc2cnc(-c3cnc(OCC(F)(F)F)c(F)c3)c(C)n12` [Compound 61, 3-[difluoro(methoxy)methyl]-6-[5-fluoro-6-(2,2,2-trifluoroethoxy)-3-pyridyl]-5-methyl-[1,2,4]triazolo[4,3-a]pyrazine], the inhibition at 1 µM lay within 30 to 70%.

As to `C[C@H](Oc1ncc(-c2cn3c(C(F)(F)OC4CC4)nnc3cn2)cc1F)C(F)(F)F` [Compound 63, 3-[cyclopropoxy(difluoro)methyl]-6-[5-fluoro-6-[(1S)-2,2,2-trifluoro-1-methyl-ethoxy]-3-pyridyl]-[1,2,4]triazolo[4,3-a]pyrazine], the inhibition at 1 µM was over 70%.

With `CCOC(F)(F)c1nnc2cnc(-c3cnc(OCc4ccccc4)c(F)c3)cn12` [Compound 64, 6-(6-benzyloxy-5-fluoro-3-pyridyl)-3-[ethoxy(difluoro)methyl]-[1,2,4]triazolo[4,3-a]pyrazine], the inhibition at 1 µM is over 70%.

For the compound `COC(F)(F)c1nnc2cc(C)c(-c3cnc(OCC(F)(F)F)c(F)c3)nn12` [Compound 65, 3-[difluoro(methoxy)methyl]-6-[5-fluoro-6-(2,2,2-trifluoroethoxy)-3-pyridyl]-7-methyl-[1,2,4]triazolo[4,3-b]pyridazine], the inhibition at 1 µM was in the range of 30 to 70%.

Consider `COC(F)(F)c1nnc2cc(C)c(-c3cnc(O[C@H](C)C(F)(F)F)c(F)c3)nn12` [Compound 66, 3-[difluoro(methoxy)methyl]-6-[5-fluoro-6-[(1R)-2,2,2-trifluoro-1-methyl-ethoxy]-3-pyridyl]-7-methyl-[1,2,4]triazolo[4,3-b]pyridazine], for which the inhibition at 1 µM is over 70%.

What is called inhibition is the relative decrease from the control value, in per cent.
